Data: BindingDB's records for doi:10.1021/jm00043a006 (Parke-Davis Pharmaceutical Research, 1994)

What follows are molecules tested against T1, Dimer of Gag-Pol polyprotein [489-587] (Human immunodeficiency virus 1, UniProt P12497) (assay: Protease Inhibition Assay). Conditions: pH 4.7; 37 °C.
T1 construct: 489-587
Protocol: For determination of IC50 values, HIV-1 protease was added to assay buffer containing inhibitor and the substrate (H-His-Lys-Ala-Arg-Val-Leu- (p-NO2) Phe-Glu-Ala-norleucine-Ser-NH2). The Leu- (p-NO2) Phe bond of the substrate was cleaved by the enzyme, and the substrate and products were separated by reversed-phase HPLC. Absorbance was measured at 220 nm, peak areas were determined, and percentage conversion to product was calculated.

Compound	IC50 [µM]
Nc1cccc(OCCCc2c(O)c3ccccc3oc2=O)c1 [3-[3-(3-aminophenoxy)propyl]-4-hydroxy-2H-chromen-2-one]	6.4
NC(=O)c1cccc(OCCCc2c(O)c3ccccc3oc2=O)c1 [3-[3-(4-Hydroxy-2-oxo-2H-1-benzopyran-3-yl)prpoxyl-benzamide]	3.9
O=C(O)c1cccc(OCCCc2c(O)c3ccccc3oc2=O)c1 [3-[3-(4-hydroxy-2-oxo-2H-chromen-3-yl)propoxy]benzoic acid]	7
O=c1oc2ccccc2c(O)c1CCCO [4-Hydroxy-3-(3-hydroxypropyl)-2H-1-benzopyran-2-one]	86
O=c1oc2ccccc2c(O)c1CC/C(=N/O)c1ccccc1 [4-Hydroxy-3-[3-(hydroroKyimino)-3-phenylpropyl] -2H-1-benzopyran-2-one]	71
O=c1[nH]c2ccccc2c(O)c1CCCOc1ccccc1 [4-hydroxy-3-(3-phenoxypropyl)-1,2-dihydroquinolin-2-one]	> 200
O=c1oc2ccccc2c(O)c1CCCCOc1ccccc1 [4-hydroxy-3-(4-phenoxybutyl)-2H-chromen-2-one]	> 100
COc1ccccc1OCCCc1c(O)c2ccccc2oc1=O [4-hydroxy-3-[3-(2-methoxyphenoxy)propyl]-2H-chromen-2-one]	44
COc1ccccc1CCCCc1c(O)c2ccccc2oc1=O [4-hydroxy-3-[4-(2-methoxyphenyl)butyl]-2H-chromen-2-one]	1.7
COc1ccc(CCCCc2c(O)c3ccccc3oc2=O)cc1 [4-hydroxy-3-[4-(4-methoxyphenyl)butyl]-2H-chromen-2-one]	> 100
O=c1oc2ccccc2c(O)c1CCCOc1cccc(CO)c1 [4-hydroxy-3-{3-[3-(hydroxymethyl)phenoxy]propyl}-2H-chromen-2-one]	2.3
COc1ccccc1CCCCc1c(O)c2ccc(OCc3ccccc3)cc2oc1=O [7-(benzyloxy)-4-hydroxy-3-[4-(2-methoxyphenyl)butyl]-2H-chromen-2-one]	> 100
CCOC(=O)c1cccc(OCCCc2c(O)c3ccccc3oc2=O)c1 [ethyl 3-[3-(4-hydroxy-2-oxo-2H-chromen-3-yl)propoxy]benzoate]	1.4
